Reference: patent US20190209585A1, “COMBINATION THERAPY COMPRISING A POLYUNSATURATED KETONE AND A SECOSTEROID” (Avexxin AS, priority 2016, published 2019)
“Also recorded” adds a separate entry of the source.

What was measured:
HaCaT cells = assay: Resazurin assay of HaCaT keratinocyte cell proliferation and viability
Experimental: The spontaneously immortalized, nontumorigenic skin keratinocyte cell line HaCaT was maintained in DMEM supplemented with 5% (v/v) FBS, 0.3 mg/ml glutamine and 0.1 mg/ml gentamicin at 37° C. with 5% CO2 in a humidified atmosphere. Subculture using trypsin-EDTA was performed every 3-4 days with split ratio of 1:3-1:4 to ensure actively proliferating cells.
(§1) Cells were seeded in 96 well plates in fully supplemented medium at a density of 2500 cells per well. Following 72 hours of cultivation, the cells were starved of serum in 0.25% FBS/DMEM overnight to halt proliferation, synchronize and to increase cell sensitivity to treatment. On day 4, the cells were treated with cPLA2α inhibitor Compound A and vitamin D analogue Calcipotriol hydrate (Sigma Aldrich #C4369) and left to incubate for […] in incubator at 37° C. with 5% CO2 in a humidified atmosphere before fluorescence was read at 544 nm excitation and 590 nm emission wavelength. The cells were observed under the microscope to evaluate possible morphology changes and signs of stress before addition of resazurin. The experiments were performed in series of 8 wells per treatment and repeated 2-3 times.
as §1, with “hour” for “hours”, “synchronize the cells” for “synchronize”, “corticosteroid Betamethasone 17, 21-dipropionate (Sigma Aldrich #B1152)” for “cPLA2α inhibitor Compound A”, “#C4369) for 24 hours. On day 5, resazurin was added according to the manufacturer's instruction (RnD Systems, UK)” for “#C4369)”
as §1, with “3000” for “2500”, “48-72 hour” for “72 hours”, “synchronize the cells” for “synchronize”, “Next day,” for “On day 4,”, “compound” for “cPLA2α inhibitor Compound”, “or calcipotriol for 24 hours. Resazurin was added next day according to the manufacturer's instruction (RnD Systems, UK)” for “and vitamin D analogue Calcipotriol hydrate (Sigma Aldrich #C4369)”
The spontaneously immortalized, nontumorigenic skin keratinocyte cell line HaCaT was maintained in DMEM supplemented with 5% (v/v) FBS, 0.3 mg/ml glutamine and 0.1 mg/ml gentamicin at 37° C. with 5% CO2 in a humidified atmosphere. Subculture using trypsin-EDTA was performed every 3-4 days with split ratio of 1:4 to ensure actively proliferating cells.
Cells were seeded in 96 well plates in fully supplemented medium at a density of 3000 cells per well. Following 72 hour of cultivation, the cells were starved of serum in 0.25% FBS/DMEM overnight to halt proliferation, synchronize the cells and to increase cell sensitivity to treatment. Next day, the cells were treated with Compound A, vitamin D analogue Calcipotriol and corticosteroid hormone receptor agonist Betamethasone dipropionate for 24 hours.

[1] = tested on: PGE2 production in PBMC challenged with LPS; assay: PGE2 enzyme immunoassay of supernatants of PBMC challenged with LPS; format: cell-based, human
Experimental: Blood from healthy, consenting blood donors was collected at St. Olays Hospital HF, Trondheim, Norway.
From each donor, 2×6 ml heparin tubes with blood were used. Peripheral blood mononuclear cells (PBMC) were isolated using 50 mL SepMate™ tubes ([…]™ Technology, UK) and Lymphoprep™ (Fresenius Kabi, N) density gradient according to the manufacturers instructions.
PBMC were resuspended in RPMI-1640 cell culture medium complemented with 5% heat-inactivated fetal bovine serum (FBS), 0.03% glutamine, 0.01 mg/mL gentamicin and 3.4 ppm β-mercaptoethanol (all reagents from Sigma-Aldrich). […]
PGE2 enzyme immunoassay analysis of PBMC supernatants was performed according to the kit protocol (Cayman Chemicals, #514010, USA). […] The plate was read at OD 420 nm using a Cytation 5 imaging reader from BioTek and data acquired with the corresponding software Gen5 2.09. A four-parameter logistic model was fit to the absorbance data to determine PGE2 levels using the Cayman PGE2 protocol. […]
Accordingly, we isolated peripheral blood mononuclear cells, treated them with various doses and combinations of Compound A and calcipotriol and finally added LPS as a trigger to mount a broad inflammatory response. The cell supernatants collected following 72 hrs of LPS stimulation were next analyzed with respect to levels of PGE2, a key proinflammatory mediator close to the cPLA2α target.

Row | Structure (SMILES) | reduction of cell proliferation and viability (HaCaT cells; Example 2, 24 hours, 50 μM Betamethasone alone) | effect on proliferation and viability of HaCaT cells (HaCaT cells; Example 1, 10 μM, alone) | effect on HaCaT cell viability (HaCaT cells; Example 3/4, 24 hours, 15 μM, alone) | effect on HaCaT cell viability (HaCaT cells; Example 3, 24 hours, doses 1-10 μM, alone) | effect on HaCaT cell viability (HaCaT cells; Example 4, 10 μM, alone) | cytotoxicity at 10 µM (HaCaT cells; Homo sapiens, HaCaT, 24 h, read-out: reduction of cell proliferation and viability) | increase of PGE2 ([1]; calcipotriol 0.5 μM alone) | effect on PGE2 levels ([1]; high doses of calcipotriol alone (<0.5 μM))
1 | CCC(=O)OCC(=O)[C@@]1(OC(=O)CC)[C@@H](C)C[C@H]2[C@@H]3CCC4=CC(=O)C=C[C@]4(C)[C@@]3(F)[C@@H](O)C[C@@]21C [Betamethasone, Betamethasone 17, 21-dipropionate] | 10% |  |  |  |  |  |  | 
2 | C=C1/C(=C\C=C2/CCC[C@]3(C)[C@@H]([C@H](C)/C=C/[C@@H](O)C4CC4)CC[C@@H]23)C[C@@H](O)C[C@@H]1O [Calcipotriol] |  | little or no effect | affect cell viability; also recorded: reduced cell viability | no signs of impairment in cell viability | no signs of impairment in cell viability | 20% | 18% | PGE2 levels increased
